Laboratory results reported in patent US11441162B2, “Human gut microbiome-derived biosynthetic enzymes for production of fatty acid amides” (Massachusetts Institute of Technology, priority 2019, dated 2022).
Like-named read-outs stand apart in the source and are kept apart here. Each block holds one compound with its values, some of them ahead of it.

Tests used:
GPR132 [1] = target: T1, GPR132 (Homo sapiens, UniProt Q9UNW8); conditions: previously reported human microbiome-derived FAA GPCR modulator; read-out: GPR132 agonist at (previously reported); cited from earlier work
T1 sequence (Q9UNW8 1-380): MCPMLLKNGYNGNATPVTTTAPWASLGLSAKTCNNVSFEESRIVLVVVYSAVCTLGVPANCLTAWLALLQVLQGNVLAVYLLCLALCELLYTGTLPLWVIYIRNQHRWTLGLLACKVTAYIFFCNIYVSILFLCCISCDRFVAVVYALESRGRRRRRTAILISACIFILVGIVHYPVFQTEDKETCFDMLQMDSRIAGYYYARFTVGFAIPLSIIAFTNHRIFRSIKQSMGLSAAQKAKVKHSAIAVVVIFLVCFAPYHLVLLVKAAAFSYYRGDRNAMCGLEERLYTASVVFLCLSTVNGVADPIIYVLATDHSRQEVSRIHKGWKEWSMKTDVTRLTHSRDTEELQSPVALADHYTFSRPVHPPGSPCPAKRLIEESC

[2] = test system: C protein of the L. clostridioforme, B. producta, C. celatum, C. sp pathways; experiment: Substrate panel assay, condensation activity on amine panel; format: biochemical, Clostridia; conditions: highest amine substrate of the panel for these four pathways; α-linolenic acid as fatty acid
Description: The human gut lumen consists of various fatty acid and amine substrates from different sources that the pathway can incorporate for FAA production. To characterize the preferred product, an in vitro substrate panel assay was set up to investigate substrate selectivity of the biosynthetic enzymes for each of the eight identified HMP-derived pathways (FIG. 2A). A and C enzyme activity was measured for defined fatty acid and amines, respectively, to determine the substrates that each pathway prefers to incorporate for FAA production (FIG. 2B-2C). A panel of 25 fatty acids and 53 biogenic amines derived from Clostridia, human cells, and human diet that are known to be abundant in the human gut was selected (FIG. 2D).^43,44,45,46,47 For consistency, FAA product level, instead of PPi level, was used as the metric of A activity for the panel assay by adding tryptamine for all query fatty acid substrates to measure the level of C-independent FAA formation based on the UV absorbance of the indole chromophore (FIG. 2B). […]
For adenylation activity, adenylation and thiolation proteins (no condensation) were added with the query fatty acid substrate(s) and tryptamine as a UV-active chromophore. […] The reaction was mixed with equal volume of methanol, spun down at 21,000 g for 1 min, and analyzed with the same analytical LCMS run as described previously. […]

P2RY4 = P2RY4 (Homo sapiens, UniProt P51582); experiment: Cell-based β-arrestin reporter assay (DiscoverX), P2RY4 antagonist mode: panel at 10 uM and concentration-response; conditions: in the presence of native agonist UTP at 2.79 uM (EC80); ten concentrations 100 to 0.0051 uM; read-out: IC50, inhibitory activity on P2RY4
Description: FIGS. 31A-31H show GPCR activity assay of lauroyl tryptamine. a, Cell-based β-arrestin reporter assay (DiscoveRx) with a panel of 168 GPCRs with known ligands in agonist mode and antagonist mode, and also 73 orphan GPCRs in agonist mode at 10 uM. Agonist mode measures % activity of target GPCR by the compound, relative to the baseline value (0% activity) and maximum value with a known ligand, or twofold increase over baseline for orphan GPCR (100% activation). Antagonist mode measures % inhibition of target GPCR by the compound in the presence of a known ligand, relative to the value at the EC80 (0% inhibition) and basal value (100% inhibition). […] The production titer was determined to be 0.04 mg/L. f, Product titer of fatty acyl tryptamine from the in vivo extract of E. rectale in RCM, when fed with exogenous fatty acid (lauric acid, linoleic acid, oleic acid, docosahexaenoic acid, or α-linolenic acid). g, Mapping of human gut metatranscriptomic reads from subject subX316701492 (accession: SRX247340) onto a 80 kb region of the E. rectale genome centered on the FAA pathway (darker arrows, labeled “FAA”). […]
(§1) FAAs are known to modulate diverse biological functions by interacting with human GPCRs. […] The FAAs were analyzed for activity against a panel of known and orphan human GPCRs using the DiscoverX platform. […]

EBI2/GPR183 = EBI2/GPR183 (Homo sapiens, UniProt P32249); experiment: Cell-based β-arrestin reporter assay (DiscoverX), EBI2 antagonist mode: panel at 10 uM and concentration-response; conditions: for inhibition on EBI2 (concentration-response, in words): antagonist mode against 7α,25-diHC; for IC50: in the presence of native agonist 7α,25-dihydroxycholesterol at 0.232 uM (EC80), ten concentrations 100 to 0.0051 uM, read-out: IC50, inhibitory activity on EBI2
Description: FIGS. 31A-31H show GPCR activity assay of lauroyl tryptamine. a, Cell-based β-arrestin reporter assay (DiscoveRx) with a panel of 168 GPCRs with known ligands in agonist mode and antagonist mode, and also 73 orphan GPCRs in agonist mode at 10 uM. Agonist mode measures % activity of target GPCR by the compound, relative to the baseline value (0% activity) and maximum value with a known ligand, or twofold increase over baseline for orphan GPCR (100% activation). Antagonist mode measures % inhibition of target GPCR by the compound in the presence of a known ligand, relative to the value at the EC80 (0% inhibition) and basal value (100% inhibition). […] EBI2 antagonist activity (δ1%) is marked with an asterisk (*). b, Concentration-dose response curves of the inhibitory activity of lauroyl tryptamine, tryptamine, and lauric acid on EBI2 in the presence of the native agonist 7α,25-dihydroxycholesterol (7a,25-diHC) at 0.232 uM (EC80). […] IC50>100 uM for all three compounds. d, Concentration-dose response curves of the stimulatory activity of lauroyl tryptamine, tryptamine, and lauric acid on GPR132. […] For b, c, d, the curves span ten concentration points in duplicates from 100 to 0.0051 uM, with the error bar being the s.d. from duplicates. e, MS chromatogram (EIC ESI+[M+H]^+ m/z of lauroyl tryptamine, theoretical=343.2744, experimental=[…]) of the in vivo extract of E. rectale in RCM media (with no fed substrates). The samples are injected alongside a chemically synthesized and structurally verified standard. The * denotes lauroyl tryptamine. The production titer was determined to be 0.04 mg/L. f, Product titer of fatty acyl tryptamine from the in vivo extract of E. rectale in RCM, when fed with exogenous fatty acid (lauric acid, linoleic acid, oleic acid, docosahexaenoic acid, or α-linolenic acid). g, Mapping of human gut metatranscriptomic reads from subject subX316701492 (accession: SRX247340) onto a 80 kb region of the E. rectale genome centered on the FAA pathway (darker arrows, labeled “FAA”). The mean coverage of the 80 kb segment was 0.8 (SD=3.3), while the mean coverage of the FAA pathway by itself was 1.5 (SD=1.1). Housekeeping genes within this segment include tRNA synthetase (tR), carbohydrate metabolism (CM), and sugar transporter (ST) genes. h, Immunological and development role of the EBI2-oxysterol axis and its suppression by E. rectale-derived lauroyl tryptamine to possibly protect against IBD.
FAAs are known to modulate diverse biological functions by interacting with human GPCRs. The products of the FAA screen are either known GPCR ligands or appear to structurally mimic these molecules (FIG. 30). The FAAs were analyzed for activity against a panel of known and orphan human GPCRs using the DiscoverX platform. […]

GPR132 [3] = target: T1, GPR132; experiment: Cell-based β-arrestin reporter assay (DiscoverX), GPR132 agonist mode: orphan panel at 10 uM and concentration-response
Description: FIGS. 31A-31H show GPCR activity assay of lauroyl tryptamine. a, Cell-based β-arrestin reporter assay (DiscoveRx) with a panel of 168 GPCRs with known ligands in agonist mode and antagonist mode, and also 73 orphan GPCRs in agonist mode at 10 uM. Agonist mode measures % activity of target GPCR by the compound, relative to the baseline value (0% activity) and maximum value with a known ligand, or twofold increase over baseline for orphan GPCR (100% activation). Antagonist mode measures % inhibition of target GPCR by the compound in the presence of a known ligand, relative to the value at the EC80 (0% inhibition) and basal value (100% inhibition). […] EBI2 antagonist activity (δ1%) is marked with an asterisk (*). b, Concentration-dose response curves of the inhibitory activity of lauroyl tryptamine, tryptamine, and lauric acid on EBI2 in the presence of the native agonist 7α,25-dihydroxycholesterol (7a,25-diHC) at 0.232 uM (EC80). […] IC50>100 uM for all three compounds. d, Concentration-dose response curves of the stimulatory activity of lauroyl tryptamine, tryptamine, and lauric acid on GPR132. […] For b, c, d, the curves span ten concentration points in duplicates from 100 to 0.0051 uM, with the error bar being the s.d. from duplicates. e, MS chromatogram (EIC ESI+[M+H]^+ m/z of lauroyl tryptamine, theoretical=343.2744, experimental=[…]) of the in vivo extract of E. rectale in RCM media (with no fed substrates). […] The production titer was determined to be 0.04 mg/L. f, Product titer of fatty acyl tryptamine from the in vivo extract of E. rectale in RCM, when fed with exogenous fatty acid (lauric acid, linoleic acid, oleic acid, docosahexaenoic acid, or α-linolenic acid). g, Mapping of human gut metatranscriptomic reads from subject subX316701492 (accession: SRX247340) onto a 80 kb region of the E. rectale genome centered on the FAA pathway (darker arrows, labeled “FAA”). […]
as §1

NPSR1b = target: T2, NPSR1b (Homo sapiens, UniProt Q6W5P4); experiment: Cell-based β-arrestin reporter GPCR panel (DiscoverX) at 10 uM, NPSR1b; conditions: compound at 10 uM
T2 sequence (Q6W5P4 1-377 isoform Q6W5P4-4): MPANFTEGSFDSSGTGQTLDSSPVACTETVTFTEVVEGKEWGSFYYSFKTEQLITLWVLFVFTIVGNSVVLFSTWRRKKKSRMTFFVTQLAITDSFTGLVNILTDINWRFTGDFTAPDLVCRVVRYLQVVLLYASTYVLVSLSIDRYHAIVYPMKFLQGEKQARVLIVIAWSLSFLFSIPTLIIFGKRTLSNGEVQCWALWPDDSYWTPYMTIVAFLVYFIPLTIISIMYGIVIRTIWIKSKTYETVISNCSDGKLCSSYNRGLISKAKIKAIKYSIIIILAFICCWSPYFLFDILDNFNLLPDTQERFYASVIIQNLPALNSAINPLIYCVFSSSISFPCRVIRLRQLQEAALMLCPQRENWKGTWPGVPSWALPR
Description: (§2) Cell-based β-arrestin reporter assay (DiscoveRx) with a panel of 168 GPCRs with known ligands in agonist mode and antagonist mode, and also 73 orphan GPCRs in agonist mode at 10 uM. Agonist mode measures % activity of target GPCR by the compound, relative to the baseline value (0% activity) and maximum value with a known ligand, or twofold increase over baseline for orphan GPCR (100% activation). Antagonist mode measures % inhibition of target GPCR by the compound in the presence of a known ligand, relative to the value at the EC80 (0% inhibition) and basal value (100% inhibition).
(§3) FAAs are known to modulate diverse biological functions by interacting with human GPCRs. The products of the FAA screen are either known GPCR ligands or appear to structurally mimic these molecules (FIG. 30). The FAAs were analyzed for activity against a panel of known and orphan human GPCRs using the DiscoverX platform. The major compound from the four human gut metagenome-derived pathways (oleoyl dopamine, oleoyl tyramine, oleoyl aminovaleric acid, and lauroyl tryptamine) were chemically synthesized and screened at 10 uM on a panel of 168 known GPCRs covering 60 distinct receptors in both agonist and antagonist mode and 73 orphan GPCRs in agonist mode. […]

PRLHR = target: T3, PRLHR (Homo sapiens, UniProt P49683); experiment: Cell-based β-arrestin reporter GPCR panel (DiscoverX) at 10 uM, PRLHR; conditions: compound at 10 uM
T3 sequence (P49683 1-370): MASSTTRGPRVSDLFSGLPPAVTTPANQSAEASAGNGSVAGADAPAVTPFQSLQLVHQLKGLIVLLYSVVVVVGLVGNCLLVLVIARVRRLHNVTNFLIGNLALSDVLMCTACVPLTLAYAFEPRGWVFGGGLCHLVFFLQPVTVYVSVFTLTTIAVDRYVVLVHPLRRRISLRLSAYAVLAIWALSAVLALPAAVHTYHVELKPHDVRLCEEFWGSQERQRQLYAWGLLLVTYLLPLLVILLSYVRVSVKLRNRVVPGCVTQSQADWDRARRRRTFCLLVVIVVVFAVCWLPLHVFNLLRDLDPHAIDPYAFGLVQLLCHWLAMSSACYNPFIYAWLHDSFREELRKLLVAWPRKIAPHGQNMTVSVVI
Description: as §2, §3

PTGER4 = PTGER4 (Homo sapiens, UniProt P35408); experiment: Cell-based β-arrestin reporter GPCR panel (DiscoverX) at 10 uM, PTGER4; conditions: antagonist mode, compound at 10 uM
Description: as §2, §3

[4] = agonist mode, ten concentrations 100 to 0.0051 uM, read-out: EC50, stimulatory activity on GPR132

Sequence of EBI2/GPR183 (P32249 whole entry): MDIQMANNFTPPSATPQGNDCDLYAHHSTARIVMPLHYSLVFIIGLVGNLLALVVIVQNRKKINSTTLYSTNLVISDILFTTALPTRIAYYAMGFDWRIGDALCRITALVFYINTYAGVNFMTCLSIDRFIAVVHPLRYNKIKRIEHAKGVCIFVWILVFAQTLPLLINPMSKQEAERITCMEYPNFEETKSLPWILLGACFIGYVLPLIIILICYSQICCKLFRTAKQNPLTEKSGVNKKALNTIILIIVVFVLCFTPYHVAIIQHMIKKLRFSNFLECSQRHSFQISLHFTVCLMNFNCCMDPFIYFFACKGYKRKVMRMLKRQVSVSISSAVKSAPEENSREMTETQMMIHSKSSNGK
Sequence of P2RY4 (P51582 whole entry): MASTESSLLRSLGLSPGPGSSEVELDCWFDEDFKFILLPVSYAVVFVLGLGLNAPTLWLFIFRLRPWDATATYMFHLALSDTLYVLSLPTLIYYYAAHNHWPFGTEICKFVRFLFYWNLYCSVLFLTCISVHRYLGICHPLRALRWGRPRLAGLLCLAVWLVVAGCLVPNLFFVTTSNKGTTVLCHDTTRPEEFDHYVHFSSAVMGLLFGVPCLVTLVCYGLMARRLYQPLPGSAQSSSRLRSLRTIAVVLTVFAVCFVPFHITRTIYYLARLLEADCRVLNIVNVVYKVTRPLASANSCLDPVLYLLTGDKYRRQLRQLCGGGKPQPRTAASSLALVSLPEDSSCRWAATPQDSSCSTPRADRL
Sequence of PTGER4 (P35408 whole entry): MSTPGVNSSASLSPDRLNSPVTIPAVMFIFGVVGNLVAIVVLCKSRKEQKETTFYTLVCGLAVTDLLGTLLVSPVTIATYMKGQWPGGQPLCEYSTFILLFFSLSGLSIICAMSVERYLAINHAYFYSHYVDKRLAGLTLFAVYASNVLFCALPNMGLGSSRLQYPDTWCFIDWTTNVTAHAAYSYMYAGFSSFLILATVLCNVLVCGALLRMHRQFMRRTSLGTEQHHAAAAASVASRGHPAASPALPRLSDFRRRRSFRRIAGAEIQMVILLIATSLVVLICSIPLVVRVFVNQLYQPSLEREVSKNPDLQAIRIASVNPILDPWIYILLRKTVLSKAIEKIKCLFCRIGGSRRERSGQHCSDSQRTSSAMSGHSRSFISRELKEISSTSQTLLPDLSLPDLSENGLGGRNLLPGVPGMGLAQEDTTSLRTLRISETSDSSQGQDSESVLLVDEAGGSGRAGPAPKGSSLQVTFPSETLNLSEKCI

Compound: CCCCCCCCCCCCCC(O)CC(=O)NCC(=O)O (centres unmarked) [commendamine]
EC50 (GPR132 [1]): 11.8 µM

Compound: CCCCCCCCCCCC(=O)O [lauric acid]
IC50 (P2RY4): > 100 µM
inhibition on EBI2 (concentration-response, in words) (EBI2/GPR183): Neither lauric acid nor tryptamine showed inhibition
IC50 (EBI2/GPR183): > 100 µM
EC50 (GPR132 [3]; [4]): 25.2 µM

Compound: CCCCCCCC/C=C\CCCCCCCC(=O)NCCc1ccc(O)cc1 [oleoyl tyramine]
activity on NPSR1b in GPCR panel (NPSR1b): shares activity
activity on PRLHR in GPCR panel (PRLHR): shares activity

Compound: NCCc1c[nH]c2ccccc12 [tryptamine]
inhibition on EBI2 (concentration-response, in words) (EBI2/GPR183): Neither lauric acid nor tryptamine showed inhibition
EC50 (GPR132 [3]): > 100 µM

The next lines start with the values.

C protein enzymatic activity, fold difference with vs without condensation enzyme [2]: 2 fold
Compound: N[C@@H](CCS)C(=O)O [homocysteine]

IC50 (P2RY4): > 100 µM
IC50 (EBI2/GPR183): 0.98 µM
EC50 (GPR132 [3]; [4]): 1.45 µM
Compound: CCCCCCCCCCCC(=O)NCCc1c[nH]c2ccccc12 [lauroyl tryptamine]

inhibition of PTGER4 in GPCR panel (PTGER4): Inhibition was observed
Compound: oleoyl aminovaleric acid
